Results: patent US10065954B2, “Substituted imidazo[4,5-c]pyridines as SSAO inhibitors” (Proximagen Limited, priority 2014, dated 2018)

Target: T1, purified recombinantly expressed human SSAO (Homo sapiens, UniProt Q16853)
T1 construct: made in house
T1 sequence (Q16853 1-763): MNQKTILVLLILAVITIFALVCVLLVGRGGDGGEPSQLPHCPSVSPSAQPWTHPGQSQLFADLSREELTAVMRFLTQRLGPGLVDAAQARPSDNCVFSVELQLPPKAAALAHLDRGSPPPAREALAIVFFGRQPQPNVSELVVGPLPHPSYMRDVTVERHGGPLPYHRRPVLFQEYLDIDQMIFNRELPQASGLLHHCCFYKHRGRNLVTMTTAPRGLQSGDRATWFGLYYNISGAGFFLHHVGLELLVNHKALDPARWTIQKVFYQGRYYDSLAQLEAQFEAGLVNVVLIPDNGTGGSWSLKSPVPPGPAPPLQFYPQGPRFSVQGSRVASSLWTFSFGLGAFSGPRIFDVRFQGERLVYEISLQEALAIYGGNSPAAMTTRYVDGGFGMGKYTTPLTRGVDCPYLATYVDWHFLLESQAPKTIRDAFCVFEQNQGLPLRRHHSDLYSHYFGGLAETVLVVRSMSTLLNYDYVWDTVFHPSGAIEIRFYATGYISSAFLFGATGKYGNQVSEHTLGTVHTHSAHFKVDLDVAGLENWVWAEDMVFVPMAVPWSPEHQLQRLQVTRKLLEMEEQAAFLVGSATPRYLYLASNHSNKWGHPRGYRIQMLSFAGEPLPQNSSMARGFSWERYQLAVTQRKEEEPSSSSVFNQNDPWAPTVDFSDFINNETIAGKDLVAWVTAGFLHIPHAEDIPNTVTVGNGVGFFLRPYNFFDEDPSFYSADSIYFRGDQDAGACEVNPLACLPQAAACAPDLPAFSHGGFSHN
Assay: SSAO enzyme inhibition assay (benzylamine substrate; hydrogen peroxide/HRP-coupled or 14C-aldehyde detection)
Assay type: biochemical
Conditions: SSAO inhibitory activity; recombinant human SSAO, RT
Method: All primary assays were performed at RT. with purified recombinantly expressed human SSAO. Enzyme was prepared essentially as described in Öhman et al. (Protein Expression and Purification 46 (2006) 321-331). In addition, secondary- and selectivity assays were performed using SSAO prepared from various tissues or purified rat recombinant SSAO. The enzyme activity was assayed with benzylamine as substrate by measuring either benzaldehyde production, using ^14C-labeled substrate, or by utilizing the production of hydrogen peroxide in a horseradish peroxidase (HRP) coupled reaction. Briefly, test compounds were dissolved in dimethyl sulfoxide (DMSO) to a concentration of 10 mM. Dose-response measurements were assayed by either creating 1:10 serial dilutions in DMSO to produce a 7 point curve or by making 1:3 serial dilutions in DMSO to produce 11 point curves. The top concentrations were adjusted depending on the potency of the compounds and subsequent dilution in reaction buffer yielded a final DMSO concentration ≤2%.
In a horseradish peroxidase (HRP) coupled reaction, hydrogen peroxide oxidation of 10-acetyl-3,7-dihydroxyphenoxazine produced resorufin, which is a highly fluorescent compound (Zhout and Panchuk-Voloshina. Analytical Biochemistry 253 (1997) 169-174; Amplex® Red Hydrogen Peroxide/peroxidase Assay kit, Invitrogen A22188). Enzyme and compounds in 50 mM sodium phosphate, pH 7.4 were set to pre-incubate in flat-bottomed microtiter plates for approximately 15 min before initiating the reaction by addition of a mixture of HRP, benzylamine and Amplex reagent. Benzylamine concentration was fixed at a concentration corresponding to the Michaelis constant, determined using standard procedures. Fluorescence intensity was then measured at several time points during 1-2 h, exciting at 544 nm and reading the emission at 590 nm. For the human SSAO assay final concentrations of the reagents in the assay wells were: SSAO enzyme 1 ug/mL, benzylamine 100 uM, Amplex reagent 20 uM, HRP 0.1 U/mL and varying concentrations of test compound. The inhibition was measured as % decrease of the signal compared to a control without inhibitor (only diluted DMSO). The background signal from a sample containing no SSAO enzyme was subtracted from all data points. Data was fitted to a four parameter logistic model and IC50 values were calculated using the GraphPad Prism 4 or XLfit 4 programs.
SSAO activity was assayed using […] benzylamine and analysed by measuring radioactive benzaldehyde. In a white 96-well optiplate (Packard), 20 uL of diluted test compound was pre-incubated at RT with 20 uL SSAO enzyme for approximately 15 min with continuous agitation. All dilutions were made with PBS. The reaction was initiated by adding 20 uL of the benzylamine substrate solution containing Benzylamine hydrochloride (CFA589, GE Healthcare). The plate was incubated for 1 h as above after which the reaction was stopped by acidification (10 uL 1M aq HCl). Then 90 uL Micro Scint-E solution (Perkin-Elmer) was added to each well and the plate was continuously mixed for 15 min. Phase separation occurred instantly and activity was read in a Topcount scintillation counter (Perkin-Elmer). In the final reaction well, the human recombinant SSAO concentration was 10 ug/mL. In order to optimize sensitivity, the substrate concentration was decreased as compared to the HRP coupled assay in order to get a higher fraction of radioactive product. In the human SSAO assay, benzylamine concentration was 40 uM (0.2uCi/mL). Data was analysed as above.

SMILES	IC50 [nM]
Cc1ccc(-n2c(-c3ccc(N4CCCC4)cc3)nc3ccncc32)cn1 [Compound 31, 2-Methyl-5-{2-[4-(pyrrolidin-1-yl)phenyl]-3H-imidazo[4,5-c]pyridin-3-yl}pyridine]	< 50
Cc1ccc(-n2c(-c3ccc(N4CCOCC4)cc3)nc3ccncc32)cn1 [Compound 28, 4-{4-[3-(6-Methylpyridin-3-yl)-3H-imidazo[4,5-c]pyridin-2-yl]phenyl}morpholine]	50 to 200
Cc1ccc(-n2c(-c3cnc(N4CCCC4)nc3)nc3ccncc32)cn1 [Compound 25, 5-[3-(6-Methylpyridin-3-yl)-3H-imidazo[4,5-c]pyridin-2-yl]-2-(pyrrolidin-1-yl)pyrimidine]	50 to 200
Cc1cc(N2CCOCC2)ncc1-c1nc2ccncc2n1-c1ccc(F)cc1F [Compound 2, 4-{5-[3-(2,4-Difluorophenyl)-3H-imidazo[4,5-c]pyridin-2-yl]-4-methylpyridin-2-yl}morpholine]	< 50
Cc1cc(N2CCOCC2)ncc1-c1nc2ccncc2n1-c1ccc(F)cn1 [Compound 14, 4-{5-[3-(5-Fluoropyridin-2-yl)-3H-imidazo[4,5-c]pyridin-2-yl]-4-methylpyridin-2-yl}morpholine; tris(trifluoroacetic acid)]	200 to 1200
Cc1ccc(-n2c(-c3ccc(N4CCCC4)cc3F)nc3ccncc32)cn1 [Compound 32, 5-{2-[2-Fluoro-4-(pyrrolidin-1-yl)phenyl]-3H-imidazo[4,5-c]pyridin-3-yl}-2-methylpyridine]	< 50
Cc1ccc(-n2c(-c3ccc(N4CCOCC4)cc3)nc3ccncc32)nc1 [Compound 30, 4-{4-[3-(5-Methylpyridin-2-yl)-3H-imidazo[4,5-c]pyridin-2-yl]phenyl}morpholine]	200 to 1200
CCN(CC)c1ncc(-c2nc3ccncc3n2-c2ccc(F)cc2)cn1 [Compound 5, N,N-Diethyl-5-[3-(4-fluorophenyl)-3H-imidazo[4,5-c]pyridin-2-yl]pyrimidin-2-amine]	< 50
Cc1ccc(-n2c(-c3ccc(NC4CC4)nc3)nc3ccncc32)cn1 [Compound 23, N-Cyclopropyl-5-[3-(6-methylpyridin-3-yl)-3H-imidazo[4,5-c]pyridin-2-yl]pyridin-2-amine]	200 to 1200
Cc1ccc(-n2c(-c3ccc(N4CCC(F)(F)CC4)nc3)nc3ccncc32)cc1 [Compound 11, 2-(4,4-Difluoropiperidin-1-yl)-5-[3-(4-methylphenyl)-3H-imidazo[4,5-c]pyridin-2-yl]pyridine]	< 50
Fc1ccc(-n2c(-c3ccc(NC4CC4)nc3)nc3ccncc32)cc1 [Compound 22, N-Cyclopropyl-5-[3-(4-fluorophenyl)-3H-imidazo[4,5-c]pyridin-2-yl]pyridin-2-amine]	< 50
Cc1ccc(-n2c(-c3cnc(N4CCOCC4)cc3C)nc3ccncc32)nc1 [Compound 13, 4-{4-Methyl-5-[3-(5-methylpyridin-2-yl)-3H-imidazo[4,5-c]pyridin-2-yl]pyridin-2-yl}morpholine]	50 to 200
Fc1ccc(-n2c(-c3cnc(NC4CCOCC4)nc3)nc3ccncc32)c(F)c1 [Compound 3, 5-[3-(2,4-Difluorophenyl)-3H-imidazo[4,5-c]pyridin-2-yl]-N-(oxan-4-yl)pyrimidin-2-amine]	50 to 200
Clc1ccc(-n2c(-c3ccc(Cl)nc3)nc3ccncc32)cc1 [Compound 38, 2-Chloro-5-[3-(4-chlorophenyl)-3H-imidazo[4,5-c]pyridin-2-yl]pyridine]	200 to 1200
Fc1ccc(-n2c(-c3ccc(NCCN4CCOCC4)nc3)nc3ccncc32)cc1 [Compound 20, 5-[3-(4-Fluorophenyl)-3H-imidazo[4,5-c]pyridin-2-yl]-N-[2-(morpholin-4-yl)ethyl]pyridin-2-amine]	< 50
Cc1ccc(-n2c(-c3ccc(N4CCC(F)CC4)cc3)nc3ccncc32)cn1 [Compound 37, 5-{2-[4-(4-Fluoropiperidin-1-yl)phenyl]-3H-imidazo[4,5-c]pyridin-3-yl}-2-methylpyridine]	50 to 200
CCN(CC)c1ncc(-c2nc3ccncc3n2-c2ccc(C)cc2)cn1 [Compound 6, N,N-Diethyl-5-[3-(4-methylphenyl)-3H-imidazo[4,5-c]pyridin-2-yl]pyrimidin-2-amine]	< 50
Cc1ccc(-n2c(-c3cnc(N4CCCC4)nc3)nc3ccncc32)cc1 [Compound 29, 5-[3-(4-Methylphenyl)-3H-imidazo[4,5-c]pyridin-2-yl]-2-(pyrrolidin-1-yl)pyrimidine]	< 50
Fc1ccc(-n2c(-c3ccc(Cl)nc3)nc3ccncc32)cc1 [Compound 39, 2-Chloro-5-[3-(4-fluorophenyl)-3H-imidazo[4,5-c]pyridin-2-yl]pyridine]	200 to 1200
Cc1ccc(-n2c(-c3ccc(N4CCCC4)c(F)c3)nc3ccncc32)cn1 [Compound 34, 5-{2-[3-Fluoro-4-(pyrrolidin-1-yl)phenyl]-3H-imidazo[4,5-c]pyridin-3-yl}-2-methylpyridine]	50 to 200
CCN(CC)c1ncc(-c2nc3ccncc3n2-c2ccc(C)cn2)cn1 [Compound 7, N,N-Diethyl-5-[3-(5-methylpyridin-2-yl)-3H-imidazo[4,5-c]pyridin-2-yl]pyrimidin-2-amine]	50 to 200
Cc1ccc(-n2c(-c3cnc(N4CCCC4)nc3)nc3ccncc32)nc1 [Compound 26, 5-[3-(5-Methylpyridin-2-yl)-3H-imidazo[4,5-c]pyridin-2-yl]-2-(pyrrolidin-1-yl)pyrimidine]	50 to 200
Cc1ccc(-n2c(-c3ccc(N4CCOCC4)cc3F)nc3ccncc32)cn1 [Compound 33, 4-{3-Fluoro-4-[3-(6-methylpyridin-3-yl)-3H-imidazo[4,5-c]pyridin-2-yl]phenyl}morpholine]	50 to 200
Cc1ccc(-n2c(-c3ccc(NC(C)C)nc3)nc3ccncc32)cc1 [Compound 24, 5-[3-(4-Methylphenyl)-3H-imidazo[4,5-c]pyridin-2-yl]-N-(propan-2-yl)pyridin-2-amine]	< 50
Cc1ccc(-n2c(-c3cnc(N4CCOCC4)cc3C)nc3ccncc32)c(F)c1 [Compound 8, 4-{5-[3-(2-Fluoro-4-methylphenyl)-3H-imidazo[4,5-c]pyridin-2-yl]-4-methylpyridin-2-yl}morpholine]	< 50
CCN(CC)c1ncc(-c2nc3ccncc3n2-c2ccc(C)nc2)cn1 [Compound 4, N,N-Diethyl-5-[3-(6-methylpyridin-3-yl)-3H-imidazo[4,5-c]pyridin-2-yl]pyrimidin-2-amine]	50 to 200
Cc1ccc(-n2c(-c3ccc(NC4CCOCC4)cc3)nc3ccncc32)cn1 [Compound 35, N-{4-[3-(6-Methylpyridin-3-yl)-3H-imidazo[4,5-c]pyridin-2-yl]phenyl}oxan-4-amine]	200 to 1200
Fc1ccc(-n2c(-c3ccc(N4CCSCC4)nc3)nc3ccncc32)cc1 [Compound 16, 4-{5-[3-(4-Fluorophenyl)-3H-imidazo[4,5-c]pyridin-2-yl]pyridin-2-yl}thiomorpholine]	< 50
